Tests used:
[1] = molecular target: T1, human 5-HT2A receptor (Homo sapiens, UniProt P28223); test: radioligand binding, [3H]-ketanserin displacement at 5-HT2AR in CHO-K1 cells; conditions: ± SEM; footnote HEK-293 cells, method CHO-K1 cells
T1 construct: host or cells: CHO-K1
Description: (§1) All experiments were performed using HEK293 cells stably expressing human 5-HT1A, 5-HT6, 5-HT7b, and D2L receptors or CHO-K1 cells with a plasmid containing the human 5-HT2A receptor coding sequence (PerkinElmer, Waltham, MA, USA), according to previously reported procedures. Cells were cultured in 150 cm^2 flasks and, after reaching a 90% confluence, were washed with PBS and the centrifugated (200 g) in PBS containing 0.1 mM EDTA and 1 mM dithiothreitol. Cell pellets were subsequently homogenized (in Ultra Turrax tissue homogenizer) and centrifugated twice (35,000× g for 15 min at 4 °C), with 15 min incubation at 37 °C between the centrifugations. All assays were incubated in dedicated buffers and in a total volume of 200 µL in 96-well microtitre plates for 1 h at 37 °C, except for 5-HT1AR and 5-HT2AR that was incubated for 1 h at room temperature. The process of equilibration is terminated by rapid filtration through Unifilter-96 (PerkinElmer) plates with a 96-well cell harvester and radioactivity retained on the filters was quantified on a Microbeta plate reader (PerkinElmer, USA). For displacement studies, the following assay samples containing the proper radioligand were used: 2.5 nM [^3H]-8-OH-DPAT (PerkinElmer, #NET929001MC) for 5-HT1AR; 1 nM [^3H]-ketanserin (PerkinElmer, #NET791250UC) for 5-HT2AR; 2 nM [^3H]-LSD (PerkinElmer, #NET638250UC) for 5-HT6R; and 0.8 nM [^3H]-5-CT (PerkinElmer, #NET1188U100UC) for 5-HT7R or 2.5 nM [^3H]-raclopride (PerkinElmer, #NET975001MC) for D2LR. Non-specific binding was determined using 10 μM 5-HT for 5-HT1AR and 5-HT7R, 20 μM mianserin for 5-HT2AR, 10 μM methiothepine for 5-HT6R, and 10 μM haloperidol for D2LR. […] Results were expressed as means of at least three separate experiments.

[2] = test system: Albino Swiss mice; test: forced swim test; type: in vivo; conditions: ip; for shortening of immobility in FST in comparison to control: dose range 1–8 mg/kg; for shortening of immobility in FST in comparison to control / active dose in FST (antidepressant-like effect): 30 min before test
Description: Adult male Albino Swiss mice (CD-1, 8 weeks old, 25–30 g: Jagiellonian University Medical College, Krakow, Poland) were used in the study. Animals were housed in groups of 8 in a transparent plastic cage (382 × 220 × 150 mm) at room temperature (22 ± 2 °C), on a 12 h light/dark cycle with ad libitum access to food and water. Mice were handled for one week before starting the experimental procedures. The separate groups of animals were used in the forced swim test and in the locomotor studies. All studies were approved by the Institutional Animal Care and Ethics Committee of the Jagiellonian University (approval no.: 80/2015). […] Tested compounds were dissolved with 1% Tween 80. […] The control animals were given ip injections of the 2% DMSO in 1% Tween 80 (vehicle). The volume of vehicle or drug solutions was 10 mL/kg. The experiment was performed on mice according to the method previously described. Mice were forced to swim individually in the glass cylinders (height 25 cm, diameter 10 cm) filled with water at 24 ± 1 °C to a depth of 10 cm and left there for 6 min. Following a 2 min habituation period, total time spent immobile was recorded over the next 4 min. The animal was regarded as immobile when it remained floating passively in the water, making only small movements to keep its head above the water.

[3] = molecular target: α1-AR; test: radioligand binding, displacement of [3H]prazosin from α1-adrenoreceptors; conditions: rat cerebral cortex, ± SEM
Description: The brains were homogenized in 20 volumes of ice-cold 50 mM Tris–HCl buffer (pH 7.6) and centrifuged at 20,000 × g for 20 min (0–4 °C). The cell pellet was resuspended in the Tris–HCl buffer and centrifuged again. Radioligand binding assays were performed in plates (MultiScreen/Millipore). […] The incubation was terminated by rapid filtration over glass fibre filters (Whatman GF/C) using a vacuum manifold (Millipore). The filters were then washed twice with the assay buffer and placed in scintillation vials with a liquid scintillation cocktail. Radioactivity was measured in a WALLAC 1409 DSA liquid scintillation counter. All assays were made in duplicate.

[4] = molecular target: T2, human 5-HT7b receptor (Homo sapiens, UniProt P34969); test: radioligand binding, [3H]-5-CT displacement at 5-HT7R in HEK293 cells; conditions: read-out: Ki [nM] ± SEM 5-HT7
T2 construct: expressed in transfected cells; host or cells: HEK293
Description: as §1

[5] = molecular target: T3, 5-HT7R (Homo sapiens, UniProt P34969); test: intrinsic activity at 5-HT7R, LANCE cAMP assay in HEK-293 cells, 5-CT stimulated; type: cell-based; conditions: read-out: 5-HT7 Kb
T3 construct: expressed in transfected cells; host or cells: HEK-293 (prepared with Lipofectamine 2000, G418 selection)
Description: Cells (prepared with the use of Lipofectamine 2000) were maintained at 37 °C in a humidified atmosphere with 5% CO2 and grown in Dulbeco’s Modifier Eagle Medium containing 10% dialyzed fetal bovine serum and […] G418 sulphate. For functional experiments, cells were subcultured in 25 cm diameter dishes, grown to 90% confluence, washed twice with pre-warmed to 37 °C phosphate buffered saline (PBS) and were centrifuged for 5 min (160× g). The supernatant was aspirated, then the cell pellet was resuspended in stimulation buffer (1 × HBSS, 5 mM HEPES, 0.5 mM IBMX, 0.1% BSA). The cAMP level was measured using the LANCE cAMP detection kit (PerkinElmer), according to the manufacturer’s directions. […] Cells (5 µL) were incubated with compounds (5 µL) for 30 min at room temperature in 384-well white opaque microtiter plate. After incubation, the reaction was stopped, and cells were lysed by the addition of 10 µL working solution (5 µL Eu-cAMP and 5 µL ULight-anti-cAMP). The assay plate was incubated for 1 h at room temperature. Time-resolved fluorescence resonance energy transfer (TR-FRET) was detected by an Infinite M1000 Pro (Tecan) using instrument settings from LANCE cAMP detection kit manual. Kb values were calculated from the Cheng–Prusoff equation specific for the analysis of functional inhibition curves: Kb = IC50/(1+A/EC50) where A is the agonist concentration, IC50 is the concentration of the antagonist producing a 50% reduction in the response to the agonist, and EC50 is the agonist concentration which causes half of the maximal response.

T1 sequence (P28223 whole entry): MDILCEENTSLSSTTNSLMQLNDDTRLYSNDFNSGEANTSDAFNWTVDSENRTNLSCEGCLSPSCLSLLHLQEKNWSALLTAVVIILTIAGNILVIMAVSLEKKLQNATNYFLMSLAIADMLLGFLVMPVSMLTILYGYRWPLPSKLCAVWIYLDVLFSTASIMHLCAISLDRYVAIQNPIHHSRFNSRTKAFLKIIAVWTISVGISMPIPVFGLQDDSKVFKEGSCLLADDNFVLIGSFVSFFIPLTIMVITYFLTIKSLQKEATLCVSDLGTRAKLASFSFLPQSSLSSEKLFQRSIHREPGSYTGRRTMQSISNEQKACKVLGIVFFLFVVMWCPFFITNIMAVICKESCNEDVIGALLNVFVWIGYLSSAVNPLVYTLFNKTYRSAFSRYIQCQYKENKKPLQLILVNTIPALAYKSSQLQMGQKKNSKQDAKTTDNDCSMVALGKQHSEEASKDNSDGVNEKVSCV
T3 sequence (P34969 1-432): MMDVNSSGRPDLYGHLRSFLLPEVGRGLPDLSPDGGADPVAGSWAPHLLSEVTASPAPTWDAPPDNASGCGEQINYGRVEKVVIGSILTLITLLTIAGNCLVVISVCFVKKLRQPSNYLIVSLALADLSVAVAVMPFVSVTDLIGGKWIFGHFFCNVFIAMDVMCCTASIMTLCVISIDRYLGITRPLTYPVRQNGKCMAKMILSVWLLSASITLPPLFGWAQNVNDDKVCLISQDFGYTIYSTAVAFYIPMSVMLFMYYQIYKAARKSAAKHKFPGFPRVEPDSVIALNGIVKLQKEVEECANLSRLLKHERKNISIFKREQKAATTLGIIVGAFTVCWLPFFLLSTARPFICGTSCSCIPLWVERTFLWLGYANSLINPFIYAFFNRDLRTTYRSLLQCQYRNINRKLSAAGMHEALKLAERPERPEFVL
T2 sequence (P34969 1-432): as above

Structure (SMILES) | Ki [1] [nM] | shortening of immobility in FST in comparison to control [2] | active dose in FST (antidepressant-like effect) [2] [mg/kg] | effect in the FST ([2]; doses of 4 and 8 mg/kg) | Ki [3] [nM] | Ki [4] [nM] | Kb [5] [µM]
CC1(C)Cc2cccc(OCCN3CCC(NS(=O)(=O)c4cncc5ccccc45)CC3)c2O1 [Compound 13, 4-Isoquinoline-N-{1-[2-(2,2-dimethyl-2,3-dihydrobenzofuran-7-yloxy)ethyl]piperidin-4-yl}sulfonamide] | 1420 ± 105 | about 25% | 1 | lack of pharmacological effect | 429 ± 66 | 91 ± 25 | 0.155 ± 0.03
CC1(C)Cc2cccc(OCCN3CCC(NS(=O)(=O)c4ccc(F)cc4)CC3)c2O1 [Compound 6, 4-Fluoro-N-{1-[2-(2,2-dimethyl-2,3-dihydrobenzofuran-7-yloxy)ethyl]piperidin-4-yl} benzenesulfonamide] | 538 ± 38 | about 25% | 8 | – | 761 ± 86 | 35 ± 22 | 0.186 ± 0.037
CC1(C)Cc2cccc(OCCN3CCC(NS(=O)(=O)c4cc(Cl)ccc4F)CC3)c2O1 [Compound 8, 5-Chloro-2-fluoro-N-{1-[2-(2,2-dimethyl-2,3-dihydrobenzofuran-7-yloxy)ethyl]piperidin-4-yl}benzenesulfonamide] | 1420 ± 98 | about 25% | 4 | – | 1260 ± 101 | 30 ± 11 | 0.141 ± 0.043

Reference: PMC8270334, “Design, Sustainable Synthesis and Biological Evaluation of a Novel Dual α2A/5-HT7 Receptor Antagonist with Antidepressant-Like Properties” (Molecules, 2021)
